Experiments:
[1] = test system: rat cardiomyocytes; assay: Rat cardiomyocyte culture with or without doxorubicin, cell suffering by LDH assay; assay type: cell-based; details: 48 hours
Method: The effects of 3-(R)-[3-(2-methoxyphenylthio)-2-(S)-methyl-propyl]amino-3,4-dihydro-2H-1,5-benzoxathiepine were assessed in the following cell model: rat cardiomyocytes were placed in culture either in the presence or in the absence of doxorubicin. After 48 hours, cell suffering was quantified by assay of the concentration of lactate dehydrogenase (LDH); LDH is […].

[2] = Cytotoxicity of the compound itself (statement, no method)
[3] = Effect on normal functioning of the cardiovascular system (earlier work of the inventors); details: even in strong concentrations

Compound	Effect on viability of cardiomyocytes (LDH) ([1]; doxorubicin at 1 and 10 μM, comparable with Triton X-100)	Cytotoxicity [2]	Effect on normal functioning of the cardiovascular system [3]	Effect on the toxic effects of doxorubicin / viability of cardiomyocytes (LDH) ([1]; compound at 10 μM, with doxorubicin)
COc1cccc2c1C(=O)c1c(O)c3c(c(O)c1C2=O)C[C@@](O)(C(=O)CO)C[C@@H]3O[C@H]1C[C@H](N)[C@H](O)[C@H](C)O1 [doxorubicin, reference compound]	significantly affects the viability of cardiomyocytes	–	–	–
COc1ccccc1SC[C@@H](C)CN[C@@H]1COc2ccccc2SC1 [3-(R)-[3-(2-methoxyphenylthio)-2-(S)-methyl-propyl]amino-3,4-dihydro-2H-1,5-benzoxathiepine]	–	not cytotoxic	does not affect the normal functioning of the cardiovascular system	significantly reduces the toxic effects of doxorubicin

From patent US9433603B2, “Use of 3-(R)-[3-(2-methoxyphenylthio)-2-(S)-methylpropyl]amino-3,4-dihydro-2H-1,5-benzoxathiepine for preventing and/or treating cardiotoxic effects caused by chemotherapy and/or radiation” (PIERRE FABRE MEDICAMENT, priority 2011, dated 2016)
